Data on 1 compound can be found in PMC6773697, “Antileukemic activity of novel adenosine derivatives” (Scientific Reports, 2019).

Test [1] has as its system MOLT-4 cells. The test can be described thus: Cell cycle analysis by flow cytometry, MOLT-4. It counts as cell-based, human. The conditions noted are these: 80 nM, +VE-821 = 1 h preincubation. As to the method:
Cellular DNA content was quantified by flow cytometry. Cells were treated with drugs for 2, 24, and 48 h. For experiments with inhibitors, cells were subjected to 1 h preincubation with VE-821. CLA, CLA-FMOR, CLA-FPIP, or CLA-FPIR was added, and incubation continued for the indicated times under the same conditions. After incubation was completed, cells were collected, washed twice with PBS, and fixed in 70% ethanol. After ethanol fixation (at least 24 h at 4 °C), cells were washed in PBS and centrifuged at 7,000 × g for 10 min at 4 °C. Pelleted cells were stained by adding 300 µL PBS containing PI and RNase at final concentrations of 75 µM and 20 µg/mL, respectively. This was followed by 1 h incubation in total darkness at 37 °C. Stained cells were analyzed using a flow cytometer (Becton Dickinson, San Jose, CA, USA). The cell populations at specific phases of the cell cycle were quantified from a standard count of 10,000 cells using FlowJo cytology software (Ashland, OR, USA)[39],[40].

Test [2] deals with MOLT-4 cells. Briefly: Comet assay with proteinase K post-treatment (DNA-protein cross-links), MOLT-4. The conditions noted are these: MOLT-4, 24 h. Type of test: cell-based, human. As to the method: Single cell gel electrophoresis (comet assay) was used to detect alkali labile sites, single and double DNA strand breaks, and cross-links induced by genotoxic agents. After electrophoresis and gel staining with 4,6-diamidino-2-phenylindole (DAPI), the released DNA was visible under a fluorescence microscope as a characteristic comet tail. The cells were plated on 24-well plates (20,000 cells/mL) and treated with CLA, CLA-FMOR, CLA-FPIP, or CLA-FPIR at the indicated concentrations for 2, 24, and 48 h at 37 °C. Some cells were preincubated with an ATR kinase inhibitor (VE-821) for 1 h at 37 °C before adding the tested compounds. Next, cells were collected into Eppendorf tubes and rinsed with PBS. Then, cells were suspended in 0.75% low melting point (LMP) agarose dissolved in PBS (pH 7.4) and placed on microscope slides precoated with 0.5% normal melting point (NMP) agarose. […] The slides were stored in a wet chamber at 4 °C and analyzed under a fluorescence microscope. Fifty randomly selected cells from each slide were measured using image analysis (Nikon, Japan) attached to a COHU 4910 video camera, which was equipped with a UV-1 filter block consisting of an excitation filter (359 nm) and a barrier filter (461 nm) connected to the image analysis system Lucia-Comet v. […] In the samples preincubated with VE-821, the level of DNA damage associated with the ATR kinase was determined. […]

For the compound `OC[C@H]1O[C@@H](n2cnc3c(N=CN4CCOCC4)nc(Cl)nc32)C[C@@H]1O` [CLA-FMOR, [6-deamino-6-(N′, N′-3′-oxa-1′, 5′-pentamethyleneformamidine)] cladribine], the “MOLT-4 (48h) S, percentage share of cell cycle phase” value in the test with MOLT-4 cells [1] is 46%. In addition, the “percentage of DNA in the comet tail after proteinase K” value in the test with MOLT-4 cells [2] is reported as “increase in the percentage of DNA in the comet tail”.
